Assay results from the supplement of paper PMC10733146.

Tests used:
Test in all cases: viability relative to DMSO control (fraction); higher = less drug effect (more viable cells)
Settings in all cases: 48 h
[1] = test system: primary AML patient cells (S017)
Summary of the method: (§1)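 Viability was measured as CellTiter-Glo luminescence relative to the median of 16 inner DMSO wells. Primary mononuclear tumour cells, fresh or cryopreserved, were Ficoll-isolated from blood or bone marrow or taken from processed lymph node. They were seeded at 4 × 10^4 cells per well into 384-well plates holding pre-plated compounds at five concentrations, one well each, and kept in RPMI-1640 with penicillin/streptomycin, L-glutamine and human serum at 37 °C and 5% CO2 for 48 h.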

[2] = test system: primary ALL patient cells (S048)
Summary of the method: as §1

[3] = test system: primary AML patient cells (S009)
Summary of the method: as §1

[4] = test system: primary MCL patient cells (S068)
Summary of the method: as §1

[5] = test system: primary AML patient cells (S006)
Summary of the method: as §1

[6] = test system: primary AML patient cells (S012)
Summary of the method: as §1

[7] = test system: primary AML patient cells (S055)
Summary of the method: as §1

[8] = test system: primary MCL patient cells (S063)
Summary of the method: as §1

[9] = test system: primary AML patient cells (S002)
Summary of the method: as §1

[10] = test system: primary AML patient cells (S081)
Summary of the method: as §1

[11] = test system: primary AML patient cells (S079)
Summary of the method: as §1

[12] = test system: primary CLL patient cells (S043)
Summary of the method: as §1

[13] = test system: primary MCL patient cells (S053)
Summary of the method: as §1

[14] = test system: primary BL patient cells (S005)
Summary of the method: as §1

[15] = test system: primary AML patient cells (S021)
Summary of the method: as §1

[16] = test system: primary AML patient cells (S056)
Summary of the method: as §1

[17] = test system: primary T-PLL patient cells (S008)
Summary of the method: as §1

[18] = test system: primary AML patient cells (S072)
Summary of the method: as §1

[19] = test system: primary FL patient cells (S022)
Summary of the method: as §1

For `O=C(Nc1nc2ccccc2n1CCN1CCOCC1)c1cccc([N+](=O)[O-])c1` [IRAK-1/4 INHIBITOR I], the viability ([1]; 0.016 µM) was 0.904, the viability ([1]; 0.08 µM) was 0.962 and the viability ([1]; 0.4 µM) was 0.889. The viability ([1]; 2 µM) was 0.932, the viability ([1]; 10 µM) was 0.937 and the viability ([2]; 0.016 µM) was 0.726. The viability ([2]; 0.08 µM) was 0.836, the viability ([2]; 0.4 µM) was 0.811 and the viability ([2]; 2 µM) was 0.834. The viability ([2]; 10 µM) was 0.808, the viability ([3]; 0.016 µM) was 1.01 and the viability ([3]; 0.08 µM) was 0.993. For the same compound, the viability ([3]; 0.4 µM) was 0.965, the viability ([3]; 2 µM) was 0.933 and the viability ([3]; 10 µM) was 0.98. For the same compound, the viability ([4]; 0.016 µM) was 0.977, the viability ([4]; 0.08 µM) was 0.997 and the viability ([4]; 0.4 µM) was 1.13. It also gave a viability ([4]; 2 µM) of 1.27, a viability ([4]; 10 µM) of 1.41 and a viability ([5]; 0.016 µM) of 0.952. For the same compound, the viability ([5]; 0.08 µM) was 0.975, the viability ([5]; 0.4 µM) was 0.887 and the viability ([5]; 2 µM) was 0.751. The viability ([5]; 10 µM) was 0.691, the viability ([6]; 0.016 µM) was 0.922 and the viability ([6]; 0.08 µM) was 0.993. It also gave a viability ([6]; 0.4 µM) of 0.908, a viability ([6]; 2 µM) of 0.954 and a viability ([6]; 10 µM) of 0.964. For the same compound, the viability ([7]; 0.016 µM) was 0.985, the viability ([7]; 0.08 µM) was 0.994 and the viability ([7]; 0.4 µM) was 1.01. It also gave a viability ([7]; 2 µM) of 1.02, a viability ([7]; 10 µM) of 0.958 and a viability ([8]; 0.016 µM) of 0.993. For the same compound, the viability ([8]; 0.08 µM) was 0.961, the viability ([8]; 0.4 µM) was 1.02 and the viability ([8]; 2 µM) was 1.03. For the same compound, the viability ([8]; 10 µM) was 1.11, the viability ([9]; 0.016 µM) was 0.955 and the viability ([9]; 0.08 µM) was 1.05. It also gave a viability ([9]; 0.4 µM) of 0.901, a viability ([9]; 2 µM) of 0.953 and a viability ([9]; 10 µM) of 1.03. It also gave a viability ([10]; 0.016 µM) of 0.864, a viability ([10]; 0.08 µM) of 0.93 and a viability ([10]; 0.4 µM) of 0.907. It also gave a viability ([10]; 2 µM) of 0.93, a viability ([10]; 10 µM) of 0.915 and a viability ([11]; 0.016 µM) of 0.929. It also gave a viability ([11]; 0.08 µM) of 0.93, a viability ([11]; 0.4 µM) of 0.885 and a viability ([11]; 2 µM) of 0.906. It also gave a viability ([11]; 10 µM) of 0.949, a viability ([12]; 0.016 µM) of 0.825 and a viability ([12]; 0.08 µM) of 0.885. For the same compound, the viability ([12]; 0.4 µM) was 0.838, the viability ([12]; 2 µM) was 0.845 and the viability ([12]; 10 µM) was 0.861. The viability ([13]; 0.016 µM) was 0.823, the viability ([13]; 0.08 µM) was 0.939 and the viability ([13]; 0.4 µM) was 0.915. For the same compound, the viability ([13]; 2 µM) was 0.977, the viability ([13]; 10 µM) was 1.09 and the viability ([14]; 0.016 µM) was 1.02. The viability ([14]; 0.08 µM) was 1.09, the viability ([14]; 0.4 µM) was 1.04 and the viability ([14]; 2 µM) was 0.984. For the same compound, the viability ([14]; 10 µM) was 1.09, the viability ([15]; 0.016 µM) was 0.924 and the viability ([15]; 0.08 µM) was 0.954. It also gave a viability ([15]; 0.4 µM) of 0.907, a viability ([15]; 2 µM) of 0.735 and a viability ([15]; 10 µM) of 0.819. It also gave a viability ([16]; 0.016 µM) of 0.693, a viability ([16]; 0.08 µM) of 1.13 and a viability ([16]; 0.4 µM) of 0.585. It also gave a viability ([16]; 2 µM) of 0.817, a viability ([16]; 10 µM) of 0.783 and a viability ([17]; 0.016 µM) of 0.933. For the same compound, the viability ([17]; 0.08 µM) was 1, the viability ([17]; 0.4 µM) was 0.935 and the viability ([17]; 2 µM) was 0.954. The viability ([17]; 10 µM) was 1.03, the viability ([18]; 0.016 µM) was 0.921 and the viability ([18]; 0.08 µM) was 0.985. For the same compound, the viability ([18]; 0.4 µM) was 0.909, the viability ([18]; 2 µM) was 0.869 and the viability ([18]; 10 µM) was 0.916. For the same compound, the viability ([19]; 0.016 µM) was 0.887, the viability ([19]; 0.08 µM) was 0.974 and the viability ([19]; 0.4 µM) was 0.885. For the same compound, the viability ([19]; 2 µM) was 0.915 and the viability ([19]; 10 µM) was 0.913.

For `Nc1cccc2c1CN(C1CCC(=O)NC1=O)C2=O` (stereo not given) [Lenalidomide], the viability ([1]; 0.008 µM) was 1.03, the viability ([1]; 0.04 µM) was 0.976 and the viability ([1]; 0.2 µM) was 0.982. For the same compound, the viability ([1]; 1 µM) was 0.963, the viability ([1]; 5 µM) was 0.986 and the viability ([2]; 0.008 µM) was 0.895. It also gave a viability ([2]; 0.04 µM) of 0.751, a viability ([2]; 0.2 µM) of 0.609 and a viability ([2]; 1 µM) of 0.548. It also gave a viability ([2]; 5 µM) of 0.488, a viability ([3]; 0.008 µM) of 0.927 and a viability ([3]; 0.04 µM) of 0.871. For the same compound, the viability ([3]; 0.2 µM) was 0.817, the viability ([3]; 1 µM) was 0.723 and the viability ([3]; 5 µM) was 0.786. The viability ([4]; 0.008 µM) was 1.02, the viability ([4]; 0.04 µM) was 0.803 and the viability ([4]; 0.2 µM) was 0.832. It also gave a viability ([4]; 1 µM) of 0.764, a viability ([4]; 5 µM) of 0.736 and a viability ([5]; 0.008 µM) of 0.847. The viability ([5]; 0.04 µM) was 0.602, the viability ([5]; 0.2 µM) was 0.463 and the viability ([5]; 1 µM) was 0.633. For the same compound, the viability ([5]; 5 µM) was 0.372, the viability ([6]; 0.008 µM) was 0.913 and the viability ([6]; 0.04 µM) was 0.956. For the same compound, the viability ([6]; 0.2 µM) was 0.874, the viability ([6]; 1 µM) was 0.946 and the viability ([6]; 5 µM) was 0.981. For the same compound, the viability ([7]; 0.008 µM) was 1.01, the viability ([7]; 0.04 µM) was 0.945 and the viability ([7]; 0.2 µM) was 0.916. For the same compound, the viability ([7]; 1 µM) was 0.943, the viability ([7]; 5 µM) was 0.928 and the viability ([8]; 0.008 µM) was 1.14. For the same compound, the viability ([8]; 0.04 µM) was 1.09, the viability ([8]; 0.2 µM) was 1.08 and the viability ([8]; 1 µM) was 1.11. For the same compound, the viability ([8]; 5 µM) was 1.11, the viability ([9]; 0.008 µM) was 0.904 and the viability ([9]; 0.04 µM) was 0.949. It also gave a viability ([9]; 0.2 µM) of 0.757, a viability ([9]; 1 µM) of 0.698 and a viability ([9]; 5 µM) of 0.713. For the same compound, the viability ([10]; 0.008 µM) was 1.03, the viability ([10]; 0.04 µM) was 1.06 and the viability ([10]; 0.2 µM) was 0.999. The viability ([10]; 1 µM) was 1.05, the viability ([10]; 5 µM) was 1 and the viability ([11]; 0.008 µM) was 1.02. It also gave a viability ([11]; 0.04 µM) of 1.02, a viability ([11]; 0.2 µM) of 1.08 and a viability ([11]; 1 µM) of 1.08. The viability ([11]; 5 µM) was 1.08, the viability ([12]; 0.008 µM) was 1.1 and the viability ([12]; 0.04 µM) was 1.07. For the same compound, the viability ([12]; 0.2 µM) was 1.08, the viability ([12]; 1 µM) was 1.05 and the viability ([12]; 5 µM) was 1.05. For the same compound, the viability ([13]; 0.008 µM) was 1.13, the viability ([13]; 0.04 µM) was 0.965 and the viability ([13]; 0.2 µM) was 0.862. For the same compound, the viability ([13]; 1 µM) was 0.817, the viability ([13]; 5 µM) was 0.688 and the viability ([14]; 0.008 µM) was 0.943. The viability ([14]; 0.04 µM) was 1.29, the viability ([14]; 0.2 µM) was 1.22 and the viability ([14]; 1 µM) was 0.897. For the same compound, the viability ([14]; 5 µM) was 1.12, the viability ([15]; 0.008 µM) was 0.897 and the viability ([15]; 0.04 µM) was 0.688. The viability ([15]; 0.2 µM) was 0.617, the viability ([15]; 1 µM) was 0.614 and the viability ([15]; 5 µM) was 0.556. The viability ([16]; 0.008 µM) was 1.04, the viability ([16]; 0.04 µM) was 1.24 and the viability ([16]; 0.2 µM) was 0.961. It also gave a viability ([16]; 1 µM) of 0.98, a viability ([16]; 5 µM) of 0.84 and a viability ([17]; 0.008 µM) of 0.988. The viability ([17]; 0.04 µM) was 0.995, the viability ([17]; 0.2 µM) was 0.907 and the viability ([17]; 1 µM) was 0.836. It also gave a viability ([17]; 5 µM) of 0.798, a viability ([18]; 0.008 µM) of 1.12 and a viability ([18]; 0.04 µM) of 1.14. The viability ([18]; 0.2 µM) was 1.1, the viability ([18]; 1 µM) was 1.13 and the viability ([18]; 5 µM) was 1.15. The viability ([19]; 0.008 µM) was 0.956, the viability ([19]; 0.04 µM) was 0.99 and the viability ([19]; 0.2 µM) was 0.97. For the same compound, the viability ([19]; 1 µM) was 1 and the viability ([19]; 5 µM) was 1.05.
